Patent US4806532A, “Inhibition of epithelial phosphate transport” (Mayo Foundation for Medical Education and Research, priority 1985, dated 1989)
Where a name gives a salt, the structure may show the parent alone. Read-outs that look alike come from different tables or passages of the source.

Legend:
[1] = test system: intestinal BBM alkaline phosphatase; assay: Effect on intestinal BBM alkaline phosphatase (data not shown); type: biochemical, rat
[2] = Hydrolysis of phosphono-compounds (release of Pi) in the BBMV assay; conditions: 1 mM; hydrolysis to release more than 5% Pi
Source text: Compounds studied in the present experiments which inhibited BBM transport of Pi without hydrolysis to release more than 5% Pi are listed in Table 1.

[3] = test system: L-[^3 H]--proline uptake by BBMV from rat small intestine; assay: L-[3H]-proline uptake by intestinal BBMV; type: biochemical; conditions: 1 mM; for L-[3H]-proline uptake 15 sec: control 27 ± 0.2; for L-[3H]-proline uptake 120 min: control 53 ± 2
Na-Pi cotransporter = biological target: T1, Na-Pi cotransporter (Rattus norvegicus, UniProt Q06496); assay: Na+-gradient-dependent 32Pi uptake by renal cortical BBMV (rapid filtration); type: biochemical; conditions: for 32Pi Uptake 120 min / 32Pi Uptake 20 sec: 5 min preincubation; for 32Pi Uptake 120 min: equilibrium; for 32Pi Uptake 20 sec: mean ± SE of 3-5 experiments
T1 construct: from tissue; host or cells: rat renal cortex, brush border membrane vesicles
T1 sequence (Q06496 1-637): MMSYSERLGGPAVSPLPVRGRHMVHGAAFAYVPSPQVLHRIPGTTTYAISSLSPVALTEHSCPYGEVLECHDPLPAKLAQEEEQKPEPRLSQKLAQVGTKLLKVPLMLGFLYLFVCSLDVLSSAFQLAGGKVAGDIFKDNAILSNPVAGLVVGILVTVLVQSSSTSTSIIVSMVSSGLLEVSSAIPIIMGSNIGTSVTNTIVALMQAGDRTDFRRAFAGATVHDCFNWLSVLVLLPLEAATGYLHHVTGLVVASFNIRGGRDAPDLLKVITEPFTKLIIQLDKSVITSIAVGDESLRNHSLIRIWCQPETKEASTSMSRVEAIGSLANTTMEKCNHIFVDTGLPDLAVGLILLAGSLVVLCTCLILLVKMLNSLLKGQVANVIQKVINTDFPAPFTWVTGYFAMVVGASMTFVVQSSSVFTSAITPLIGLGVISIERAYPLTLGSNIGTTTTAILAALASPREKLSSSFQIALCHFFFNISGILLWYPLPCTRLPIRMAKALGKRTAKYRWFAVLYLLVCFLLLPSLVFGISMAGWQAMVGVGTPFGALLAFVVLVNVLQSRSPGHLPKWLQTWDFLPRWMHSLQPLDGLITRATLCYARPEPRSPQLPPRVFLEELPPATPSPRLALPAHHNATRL
Procedure: The brush border membrane vesicles (BBMV) were prepared from renal cortical tissue of adult male Sprague-Dawley rats of an average body weight of about 220 grams. Rats were fed ad libitum standard rat chow containing 0.7% Pi and had free access to distilled water. Rats were sacrificed under anesthesia and dissected renal cortical tissue was used for preparation of BBMV fraction by the divalent cation-precipitation procedure, employed and described in detail in J. Clin. Invest., 67, 1347 (1981) and J. Biol. Chem., 258, 5695 (1983), with the following modifications: (a) MgCl2 instead of CaCl2 was added to crude homogenate (final concentration 10 mM MgCl2) to precipitate membranes other than BBMV; (b) in the final step, BBMV were washed and equilibrated in a medium of pH=7.5, instead of pH=8.5. The enrichment and specific activities of typical BBM enzymes alkaline phosphatase (APases), γ-glutyamyl transferase (γ-GTT), leucineaminopeptidase (LAP) and maltase with use of these modifications were similar as in BBMV fractions prepared in our previous studies. As a final step in the preparative procedure, the BBMV fraction was washed and resuspended in a medium containing 300 mM mannitol and 5 mM Tris-HEPES adjusted to pH=t.5, referred to as "MTH-medium," unless specified otherwise. The analogous BBMV fractions, using the same procedure, were prepared from renal cortices of mongrel dogs, albino mice and New Zealand albino rabbits.
The BBMV uptake of ^32 Pi, D-[^3 H]-glucose, L-[^3 H]-proline and ^22 Na^+ was measured by means of a rapid filtration technique, as described in J. Clin. Invest., 67, 1347 (1981) and Am. J. Physiol., 246, F133-F139 (1984). Also, unless specified otherwise, the medium for the solute uptake assay consisted of following compounds (in final concentrations): 100 mM mannitol, 100 mM NaCl (or 100 mM KC1) and 5 mM Tris-HEPES (pH=7.5) and eitehr 0.1 mM K2 H^32 PO4, or 0.05 mM D-[^3 H]-glucose, or 0.025 mM L-[^3 H]-proline. IN the ^22 Na^+ uptake studies, the assay medium contained 100 mM ^22 NaCl (^22 NaCl about […] per tube), 100 mM mannitol and 5 mM Tris-HEPES (pH 7.5).
In most experiments, the Na^+ -gradient-dependent ^32 Pi uptake in the concentrative "uphill" phase was measured at 20 seconds period. Since Na^+ -independent Pi uptake in this time period was quantitatively minor component (<5%) of the Na^+ -gradient-dependent Pi uptake, it was not routinely subtracted.

[4] = 1 mM, initial uptake at 20 sec, rat kidney cortex BBMV, read-out: Δ% (inhibition as percent decrease from control) of Na+-gradient-dependent 32Pi uptake

SMILES	inhibition of intestinal BBM alkaline phosphatase [1]	Note: hydrolysis [2]	L-[3H]-proline uptake 15 sec [3] [pmoles/mg protein]	L-[3H]-proline uptake 120 min [3] [pmoles/mg protein]	Δ% ratio of uptake at uphill phase (20 sec) and equilibrium phase (120 min) (Na-Pi cotransporter; 0.2 mM)	32Pi Uptake 120 min (Na-Pi cotransporter; 0.2 mM) [pmoles/mg protein]	32Pi Uptake 20 sec (Na-Pi cotransporter; 0.2 mM) [pmoles/mg protein]	Δ% ratio of uptake at uphill phase (20 sec) and equilibrium phase (120 min) (Na-Pi cotransporter; 1.0 mM)	32Pi Uptake 120 min (Na-Pi cotransporter; 1.0 mM) [pmoles/mg protein]	32Pi Uptake 20 sec (Na-Pi cotransporter; 1.0 mM) [pmoles/mg protein]	inhibition at 1000 µM (Na-Pi cotransporter; [4]) [%]	Δ% ratio of uptake at uphill phase (20 sec) and equilibrium phase (120 min) (Na-Pi cotransporter; 5.0 mM)	32Pi Uptake 120 min (Na-Pi cotransporter; 5.0 mM) [pmoles/mg protein]	32Pi Uptake 20 sec (Na-Pi cotransporter; 5.0 mM) [pmoles/mg protein]	also measured
O=C(O)CP(=O)(O)O [PAA, phosphonoacetic acid]	neither TPFA or PAA inhibited	no	27 ± 1.0	55 ± 1.0	+305 ± 101%	320 ± 80	1057 ± 89	+331 ± 86%	274 ± 51	1019 ± 94	-18	+261 ± 78%	269 ± 52	876 ± 68	–
O=C(O)P(=O)(O)O [TPFA, Phosphonoformic acid, trisodium salt hexahydrate]	neither TPFA or PAA inhibited	no	27 ± 0.4	54 ± 0.1	+262 ± 44%	264 ± 53	869 ± 45	+137 ± 27%	248 ± 47	541 ± 39	-53	< 0.0%	239 ± 44	153 ± 28	effect on intravesicular volume of BBMV (Na-Pi cotransporter): did not alter; nature of the inhibitory effect on Pi uptake (Na-Pi cotransporter): competitive; inhibition at 1000 µM (Na-Pi cotransporter; 20 s, Rat, 1 mM TPFA, read-out: percent decrease of 20 sec 32Pi-uptake relative to control value): 59.1%; inhibition at 5000 µM (Na-Pi cotransporter; 20 s, Rat, 5 mM TPFA, read-out: percent decrease of 20 sec 32Pi-uptake relative to control value): 78%; effect on 32Pi uptake by BBMV in the absence of Na+ (Na-Pi cotransporter; NaCl replaced by KCl, 1 mM TPFA, FIG. 1): had no effect; 32Pi-uptake 120 min (Na-Pi cotransporter; Rat, 1 mM TPFA, control 361 ± 9): 359 ± 8 pmoles Pi/mg protein/time; 32Pi-uptake 20 sec (Na-Pi cotransporter; Rat, 1 mM TPFA, control 1570 ± 31): 783 ± 6 pmoles Pi/mg protein/time; 32Pi-uptake 20 sec (Na-Pi cotransporter; Rat, 5 mM TPFA): 344 ± 7 pmoles Pi/mg protein/time; 32Pi-uptake 120 min (Na-Pi cotransporter; Rat, 5 mM TPFA): 379 ± 34 pmoles Pi/mg protein/time; Ki (Na-Pi cotransporter; competitive inhibition, renal cortical BBMV): 460 µM; effect on 32Pi uptake under Na+ equilibrium conditions [Na+i = Na+o] (Na-Pi cotransporter; initial fast uptake phase (0-60 seconds), data not shown): inhibited
